Assay results: paper PMC9286713 (CPT: Pharmacometrics & Systems Pharmacology, 2022)
Converted amounts (≈) assume the structure as drawn. Where two headings read alike, the source gives them in different places.

Tests used:
[1] = human ADME study (unpublished data); cited from earlier work
[2] = patients with cancer, cited from earlier work; for Observed AUCss,0–24: geometric mean
Blood/plasma ratio = format: in vitro ADME; conditions: blood and plasma
pKa determination = format: physicochemical
P‐gp = P‐gp (Homo sapiens, UniProt P08183); test: P‐gp inhibition
MATE1 = molecular target: T1, MATE1 (Homo sapiens, UniProt Q96FL8); test: MATE1 inhibition; format: in vitro ADME
T1 sequence (Q96FL8 1-570): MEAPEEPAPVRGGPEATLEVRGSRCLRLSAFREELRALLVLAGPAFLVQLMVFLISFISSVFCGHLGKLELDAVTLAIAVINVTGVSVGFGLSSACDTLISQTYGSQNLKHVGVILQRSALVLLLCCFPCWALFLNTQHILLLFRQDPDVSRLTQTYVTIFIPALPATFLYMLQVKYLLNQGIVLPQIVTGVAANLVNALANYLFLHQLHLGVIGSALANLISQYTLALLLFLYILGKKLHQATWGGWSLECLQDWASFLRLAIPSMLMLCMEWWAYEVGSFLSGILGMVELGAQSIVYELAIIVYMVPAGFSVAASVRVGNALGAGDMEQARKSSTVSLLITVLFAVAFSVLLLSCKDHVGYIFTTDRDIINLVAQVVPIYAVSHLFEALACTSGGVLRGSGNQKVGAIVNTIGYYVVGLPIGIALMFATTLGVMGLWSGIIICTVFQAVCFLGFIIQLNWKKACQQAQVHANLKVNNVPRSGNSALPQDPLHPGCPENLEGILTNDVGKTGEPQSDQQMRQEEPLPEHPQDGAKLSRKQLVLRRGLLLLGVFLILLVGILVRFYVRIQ

[3] = cited from earlier work
[4] = Solubility‐pH profile in buffers at 37°C; format: physicochemical
[5] = fed state; cited from earlier work
OCT2 = molecular target: T2, OCT2 (Homo sapiens, UniProt O15244); test: OCT2 inhibition
T2 sequence (O15244 1-555): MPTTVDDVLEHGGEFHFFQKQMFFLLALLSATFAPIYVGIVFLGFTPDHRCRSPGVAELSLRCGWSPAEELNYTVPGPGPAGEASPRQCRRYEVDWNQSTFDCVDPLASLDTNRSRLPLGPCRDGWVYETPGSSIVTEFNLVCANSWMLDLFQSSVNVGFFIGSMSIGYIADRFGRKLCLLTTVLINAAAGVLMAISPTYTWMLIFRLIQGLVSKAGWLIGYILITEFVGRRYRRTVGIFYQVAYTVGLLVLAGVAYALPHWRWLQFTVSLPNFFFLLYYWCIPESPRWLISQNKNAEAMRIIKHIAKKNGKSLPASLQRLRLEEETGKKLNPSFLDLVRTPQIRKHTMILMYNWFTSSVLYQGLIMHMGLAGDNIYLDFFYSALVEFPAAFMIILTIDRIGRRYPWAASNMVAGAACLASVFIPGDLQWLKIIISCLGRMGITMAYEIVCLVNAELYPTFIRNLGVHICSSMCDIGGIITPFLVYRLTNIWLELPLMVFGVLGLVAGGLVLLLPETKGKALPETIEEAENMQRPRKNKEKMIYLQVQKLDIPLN

P‐glycoprotein (P‐gp) = P‐glycoprotein (P‐gp) (Homo sapiens, UniProt P08183); test: In vitro transport study, pemigatinib as substrate: P‐gp mediated efflux; format: in vitro ADME; conditions: data on file
logP determination = format: physicochemical
[6] = cited from earlier work; for Observed AUC0–∞: geometric mean
[7] = Human mass balance / ADME study in healthy participants; format: in vivo
[8] = healthy participants, unpublished data

P‐gp, sequence (P08183 whole entry): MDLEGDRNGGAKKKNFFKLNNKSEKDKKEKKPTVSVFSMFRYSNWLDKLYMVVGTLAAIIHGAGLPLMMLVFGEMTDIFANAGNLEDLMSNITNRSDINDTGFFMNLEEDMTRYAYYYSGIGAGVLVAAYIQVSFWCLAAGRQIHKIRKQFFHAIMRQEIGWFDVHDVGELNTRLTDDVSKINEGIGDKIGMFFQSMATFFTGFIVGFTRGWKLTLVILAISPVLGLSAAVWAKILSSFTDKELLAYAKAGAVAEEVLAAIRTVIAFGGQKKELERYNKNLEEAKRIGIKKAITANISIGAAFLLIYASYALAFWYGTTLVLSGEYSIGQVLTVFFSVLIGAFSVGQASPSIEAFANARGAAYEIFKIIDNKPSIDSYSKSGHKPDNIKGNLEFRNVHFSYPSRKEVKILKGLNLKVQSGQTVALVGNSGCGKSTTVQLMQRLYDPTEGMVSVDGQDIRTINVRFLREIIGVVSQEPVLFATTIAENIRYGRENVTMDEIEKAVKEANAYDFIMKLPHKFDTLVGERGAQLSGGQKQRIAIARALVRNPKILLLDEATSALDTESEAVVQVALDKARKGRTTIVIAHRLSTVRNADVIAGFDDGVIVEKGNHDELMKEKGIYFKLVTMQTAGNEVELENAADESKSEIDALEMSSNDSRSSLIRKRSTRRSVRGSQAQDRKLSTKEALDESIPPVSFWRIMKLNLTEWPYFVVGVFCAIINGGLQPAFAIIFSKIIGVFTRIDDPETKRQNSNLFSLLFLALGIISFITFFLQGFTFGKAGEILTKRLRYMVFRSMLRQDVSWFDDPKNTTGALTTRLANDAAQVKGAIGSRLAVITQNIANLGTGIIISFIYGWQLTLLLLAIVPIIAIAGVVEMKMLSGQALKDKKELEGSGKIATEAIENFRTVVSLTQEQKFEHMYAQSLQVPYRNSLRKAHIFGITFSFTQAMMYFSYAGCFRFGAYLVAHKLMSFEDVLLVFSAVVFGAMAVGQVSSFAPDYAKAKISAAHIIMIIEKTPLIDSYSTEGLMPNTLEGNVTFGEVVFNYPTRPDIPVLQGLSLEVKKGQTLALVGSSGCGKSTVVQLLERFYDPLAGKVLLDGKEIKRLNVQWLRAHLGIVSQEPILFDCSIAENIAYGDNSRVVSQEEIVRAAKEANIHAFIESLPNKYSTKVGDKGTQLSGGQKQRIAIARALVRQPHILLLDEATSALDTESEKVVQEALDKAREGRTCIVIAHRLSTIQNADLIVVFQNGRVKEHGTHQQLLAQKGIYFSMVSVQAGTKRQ
P‐glycoprotein (P‐gp), sequence (P08183 whole entry): as above

CCN1C(=O)N(c2c(F)c(O)cc(OC)c2F)Cc2cnc3[nH]c(CN4CCOCC4)cc3c21 [M2, O‐desmethyl‐pemigatinib]
Metabolite burden in urine and feces derived from M2 and its secondary metabolites [1]: 76.9%

CCN1C(=O)N(c2c(F)c(OC)cc(OC)c2F)Cc2cnc3[nH]c(CN4CCOCC4)cc3c21 [pemigatinib, Pemigatinib]
Observed AUCss,0–24 ([2]; multiple oral doses 6 mg): 1.05 µM·h
Observed AUCss,0–24 ([2]; multiple oral doses 9 mg): 1.67 µM·h
Terminal half‐life ([2]; oral dosing): ~ 15 h
CLpo (oral clearance) ([2]; phase I study): 12.0 L/h
Apparent volume of distribution, geometric mean [2]: 173 to 244 L
SS oral clearance, geometric mean [2]: 9.88 to 11.7 L/h
blood plasma ratio (Blood/plasma ratio): 0.96
Compound type (pKa determination): Diprotic base
pKa (pKa determination; first printed pKa of the diprotic base): 5.7
pKa (pKa determination; second printed pKa of the diprotic base): 3.1
IC50 (P‐gp): 4800 nM
IC50 (MATE1): 1100 nM
Decrease of geometric mean AUC of pemigatinib ([3]; coadministration with esomeprazole): 8%
Decrease of geometric mean Cmax of pemigatinib ([3]; coadministration with histamine‐2 antagonist ranitidine): 2%
Decrease of geometric mean Cmax of pemigatinib ([3]; coadministration with proton pump inhibitor esomeprazole): 35%
Increase of geometric mean AUC of pemigatinib ([3]; coadministration with ranitidine): 3%
solubility ([4]; buffer, 37 °C, pH 1.2, aqueous buffer, Solubility, pH 1.2 buffer): ~710 µg/mL (≈ 1460 µM)
solubility ([4]; buffer, 37 °C, pH 2, aqueous buffer, Solubility, pH 2.0 buffer): 650 µg/mL (≈ 1330 µM)
solubility ([4]; buffer, 37 °C, pH 6.5, aqueous buffer, Solubility, pH 6.5 buffer): < 1 µg/mL
solubility ([4]; buffer, 37 °C, pH 7.4, aqueous buffer, Solubility, pH 7.4 buffer): < 1 µg/mL
solubility ([4]; buffer, pH 3.3, Solubility, pH 3.3): 200 µg/mL (≈ 410 µM)
solubility ([4]; buffer, pH 4.3, Solubility, pH 4.3): 30 µg/mL (≈ 61.5 µM)
solubility ([4]; buffer, pH 5.3, Solubility, pH 5.3): 1 µg/mL (≈ 2.05 µM)
solubility ([4]; pH 1.2 buffer, 37°C): 710 µg/mL (≈ 1460 µM)
Decrease of geometric mean Cmax [5]: 18%
Increase of geometric mean AUC0–24 at SS [5]: 11%
IC50 (OCT2): 75 nM
Concentration at which P‐gp mediated efflux was saturated (P‐glycoprotein (P‐gp)): 1000 nM
logP (logP determination): 2.2
Increase in pemigatinib AUC ([6]; itraconazole coadministration): ~90%
Increase in pemigatinib Cmax ([6]; itraconazole coadministration): ~20%
CLpo (oral clearance) ([6]; pemigatinib alone cohort of itraconazole DDI study, healthy volunteers): 14.5 L/h
Decrease in half‐life of pemigatinib ([6]; rifampin coadministration): 63%
Decrease in pemigatinib AUC ([6]; rifampin coadministration): 85%
Observed AUC0–∞ ([6]; single oral dose 4.5 mg, healthy volunteers): 0.672 µM·h
Observed AUC0–∞ ([6]; single oral dose 13.5 mg, healthy volunteers): 1.96 µM·h
Total radioactivity excreted in feces [7, 8]: 82.4%
Total radioactivity excreted in urine [7, 8]: 12.6%
Radioactivity blood/plasma value ([7]; human ADME study): 0.80
CL renal ([7]; human, urine, oral): ~3.33 mL/min
Administered radioactive dose recovered as unchanged pemigatinib in feces ([7]; in vivo): 1.4%
Dose excreted in urine as unchanged pemigatinib (renal excretion) ([7]; in vivo): ~ 1%
Total radioactivity accounted for by known metabolites [1]: 72%
